In patent US20150038438A1, “ANTIBACTERIAL COMPOUNDS AND METHODS FOR USE” (PTC THERAPEUTICS, INC., priority 2011, published 2015):
Values after ≈ are worked out from the molar mass of the structure shown.

Columns and labels:
Experiment in all cases: Antibacterial activity, microbroth dilution method (MIC)
[1] = test system: Gram-positive Staphylococcus aureus (S. aureus) 29213; format: cell-based; details: Staphylococcus aureus, Gram-positive S. aureus 29213
Outline: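 Using broth microdilution, MIC endpoints (μg/mL) mark where visible growth no longer appears; the panel spans sensitive and control Gram-negative strains plus a Gram-positive strain.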

[2] = test system: super sensitive Gram-negative Escherichia coli (E. coli) BAS849; format: cell-based; details: Escherichia coli; super sensitive Gram-negative E. coli BAS849; microbroth dilution; read-out: MIC, E. coli BAS849
Outline: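 Potency is reported as minimum inhibitory concentration in μg/mL, determined by broth microdilution as the lowest level of compound that stops growth visible to the eye.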

[3] = test system: control Gram-negative E. coli 25922 strain; format: cell-based, Escherichia coli; details: Escherichia coli
Outline: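 Values are MICs (μg/mL): the smallest drug amount at which macroscopically visible bacterial growth is absent under assay conditions, from a microdilution method in broth.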

Row | SMILES | MIC [1] [µg/mL] | MIC [2] [µg/mL] | MIC [3] [µg/mL]
1 | CN(C)C1CCN(c2ccc3c(c2)C(O)CCc2c-3[nH]c(=O)c(C(=O)O)c2O)C1.Cl (stereo not drawn) [Cpd 15, 9-(3-(dimethylamino)pyrrolidin-1-yl)-4,7-dihydroxy-2-oxo-2,5,6,7-tetrahydro-1H-benzo[6,7]cyclohepta[1,2-b]pyridine-3-carboxylic acid hydrochloride] | 12.5 to 150 | 12.5 to 150 | 12.5 to 150
2 | Cl.O=C(O)c1c(O)c2c([nH]c1=O)-c1ccc(NC3CCNCC3)cc1CCC2 [Cpd 118, 4-hydroxy-2-oxo-9-(piperidin-4-ylamino)-2,5,6,7-tetrahydro-1H-benzo[6,7]cyclohepta[1,2-b]pyridine-3-carboxylic acid hydrochloride] | 12.5 to 150 | 12.5 to 150 | 12.5 to 150
3 | Cl.Cn1c(CNC(C)(C)C)cc2cc3c(cc21)CCCc1c-3[nH]c(=O)c(C(=O)O)c1O [Cpd 27, 10-((tert-butylamino)methyl)-4-hydroxy-9-methyl-2-oxo-1,2,5,6,7,9-hexahydropyrido[3′,2′:6,7]cyclohepta[1,2-f]indole-3-carboxylic acid hydrochloride] | 1 to 3.5 | < 1 | < 1
4 | CCCCCCCNCc1cc2cc3c(cc2n1C)CCCc1c-3[nH]c(=O)c(C(=O)O)c1O.Cl [Cpd 139, 10-((heptylamino)methyl)-4-hydroxy-9-methyl-2-oxo-1,2,5,6,7,9-hexahydropyrido[3′,2′:6,7]cyclohepta[1,2-f]indole-3-carboxylic acid hydrochloride] | 1 to 3.5 | < 1 | 12.5 to 150
5 | CCNCc1cc2cc3c(cc2n1C)C(C)=CCc1c-3[nH]c(=O)c(C(=O)O)c1O.Cl [Cpd 70, 10-((ethylamino)methyl)-4-hydroxy-7,9-dimethyl-2-oxo-1,2,5,9-tetrahydropyrido[3′,2′:6,7]cyclohepta[1,2-f]indole-3-carboxylic acid hydrochloride] | 3.5 to 12.5 | 3.5 to 12.5 | 3.5 to 12.5
6 | CCNCc1cc2cc3c(cc2n1C)OCCc1c-3[nH]c(=O)c(C(=O)O)c1O.Cl [Cpd 89, 10-((ethylamino)methyl)-4-hydroxy-9-methyl-2-oxo-2,5,6,9-tetrahydro-1H-pyrido[2′,3′:4,5]oxepino[3,2-f]indole-3-carboxylic acid hydrochloride] | 12.5 to 150 | < 1 | < 1
7 | Cl.Cn1c(CNCC2CCC2)cc2cc3c(cc21)CCCc1c-3[nH]c(=O)c(C(=O)O)c1O [Cpd 37, 10-(((cyclobutylmethyl)amino)methyl)-4-hydroxy-9-methyl-2-oxo-1,2,5,6,7,9-hexahydropyrido[3′,2′:6,7]cyclohepta[1,2-f]indole-3-carboxylic acid hydrochloride] | 3.5 to 12.5 | < 1 | 1 to 3.5
8 | CN(C)Cc1cc2cc3c(cc2n1C)CCCc1c-3[nH]c(=O)c(C(=O)O)c1O.Cl [Cpd 48, 10-((dimethylamino)methyl)-4-hydroxy-9-methyl-2-oxo-1,2,5,6,7,9-hexahydropyrido[3′,2′:6,7]cyclohepta[1,2-f]indole-3-carboxylic acid hydrochloride] | 3.5 to 12.5 | < 1 | < 1
9 | Cl.Cn1c(CN2CCC2)cc2cc3c(cc21)CCCc1cc(C(=O)O)c(=O)[nH]c1-3 [Cpd 57, 10-(azetidin-1-ylmethyl)-9-methyl-2-oxo-1,2,5,6,7,9-hexahydropyrido[3′,2′:6,7]cyclohepta[1,2-f]indole-3-carboxylic acid hydrochloride] | 12.5 to 150 | < 1 | < 1
10 | CNCc1cc2cc3c(cc2n1C)OCCc1c-3[nH]c(=O)c(C(=O)O)c1O.Cl [Cpd 88, 4-hydroxy-9-methyl-10-((methylamino)methyl)-2-oxo-2,5,6,9-tetrahydro-1H-pyrido[2′,3′:4,5]oxepino[3,2-f]indole-3-carboxylic acid hydrochloride] | 12.5 to 150 | < 1 | 1 to 3.5
11 | CCCCCCCCCNCc1cc2cc3c(cc2n1C)CCCc1c-3[nH]c(=O)c(C(=O)O)c1O.Cl [Cpd 141, 4-hydroxy-9-methyl-10-((nonylamino)methyl)-2-oxo-1,2,5,6,7,9-hexahydropyrido[3′,2′:6,7]cyclohepta[1,2-f]indole-3-carboxylic acid hydrochloride] | 3.5 to 12.5 | 1 to 3.5 | 12.5 to 150
12 | CC1Cc2cc3c(cc2-c2[nH]c(=O)c(C(=O)O)c(O)c21)OCO3 (stereo not drawn) [Cpd 106, 4-hydroxy-5-methyl-2-oxo-1,2,5,6-tetrahydro-[1,3]dioxolo[4′,5′:4,5]benzo[1,2-h]quinoline-3-carboxylic acid] | 12.5 to 150 (≈ 39.6 to 476 µM) | 1 to 3.5 (≈ 3.17 to 11.1 µM) | 12.5 to 150 (≈ 39.6 to 476 µM)
13 | Cl.Cn1c(CNCC(C)(C)C)cc2cc3c(cc21)CCCc1c-3[nH]c(=O)c(C(=O)O)c1O [Cpd 155, 4-hydroxy-9-methyl-10-((neopentylamino)methyl)-2-oxo-1,2,5,6,7,9-hexahydropyrido[3′,2′:6,7]cyclohepta[1,2-f]indole-3-carboxylic acid hydrochloride] | 3.5 to 12.5 | < 1 | 1 to 3.5
14 | CNCCNCc1cc2cc3c(cc2n1C)CCCc1c-3[nH]c(=O)c(C(=O)O)c1O.Cl.Cl [Cpd 143, 4-hydroxy-9-methyl-10-(((2-(methylamino)ethyl)amino)methyl)-2-oxo-1,2,5,6,7,9-hexahydropyrido[3′,2′:6,7]cyclohepta[1,2-f]indole-3-carboxylic acid dihydrochloride] | 12.5 to 150 | 3.5 to 12.5 | 12.5 to 150
15 | CN1CCN(c2ccc3c(c2)CCCc2c-3[nH]c(=O)c(C(=O)O)c2O)CC1.Cl [Cpd 120, 4-hydroxy-9-(4-methylpiperazin-1-yl)-2-oxo-2,5,6,7-tetrahydro-1H-benzo[6,7]cyclohepta[1,2-b]pyridine-3-carboxylic acid hydrochloride] | 12.5 to 150 | 1 to 3.5 | 12.5 to 150
16 | Cl.O=C(O)c1c(O)c2c([nH]c1=O)-c1ccc(N3CC4CCCNC4C3)cc1NCC2 (stereo not drawn) [Cpd 98, 9-(hexahydro-1H-pyrrolo[3,4-b]pyridin-6(2H)-yl)-4-hydroxy-2-oxo-2,5,6,7-tetrahydro-1H-benzo[b]pyrido[2,3-d]azepine-3-carboxylic acid hydrochloride] | 12.5 to 150 | 12.5 to 150 | 12.5 to 150
17 | CC1Oc2cc(N3CCC(N(C)C)C3)ccc2-c2[nH]c(=O)c(C(=O)O)cc21.Cl (stereo not drawn) [Cpd 75, 8-(3-(dimethylamino)pyrrolidin-1-yl)-5-methyl-2-oxo-2,5-dihydro-1H-chromeno[4,3-b]pyridine-3-carboxylic acid hydrochloride] | 12.5 to 150 | 12.5 to 150 | 12.5 to 150
18 | CN(C)CCN(C)Cc1cc2cc3c(cc2n1C)CCCc1c-3[nH]c(=O)c(C(=O)O)c1O.Cl.Cl [Cpd 145, 10-(((2-(dimethylamino)ethyl)(methyl)amino)methyl)-4-hydroxy-9-methyl-2-oxo-1,2,5,6,7,9-hexahydropyrido[3′,2′:6,7]cyclohepta[1,2-f]indole-3-carboxylic acid dihydrochloride] | 12.5 to 150 | < 1 | 12.5 to 150
19 | CN(C)c1ccc2c(c1)CCCCc1cc(C(=O)O)c(=O)[nH]c1-2 [Cpd 4, 10-(dimethylamino)-2-oxo-1,2,5,6,7,8-hexahydrobenzo[7,8]cycloocta[1,2-b]pyridine-3-carboxylic acid] | 12.5 to 150 (≈ 40 to 480 µM) | < 1 | 12.5 to 150 (≈ 40 to 480 µM)
20 | CN(C)C1CCN(c2ccc3c(c2)OCCc2cc(C(=O)O)c(=O)[nH]c2-3)C1.Cl (stereo not drawn) [Cpd 82, 9-(3-(dimethylamino)pyrrolidin-1-yl)-2-oxo-1,2,5,6-tetrahydrobenzo[2,3]oxepino[4,5-b]pyridine-3-carboxylic acid hydrochloride] | 12.5 to 150 | 3.5 to 12.5 | 12.5 to 150
